Test results as given in ChEMBL document CHEMBL4507304, “Data for DCP probe TP-021” (2021).

Tests used:
[1] = target: Serine/threonine-protein kinase 32B (Homo sapiens) (UniProt Q9NY57); conditions: Compound concentration 1000.0 nM
[2] = target: Serine/threonine-protein kinase haspin (Homo sapiens) (UniProt Q8TF76); conditions: Compound concentration 1000.0 nM
[3] = target: Ephrin type-B receptor 6 (Homo sapiens) (UniProt O15197); conditions: Compound concentration 1000.0 nM
[4] = target: Serine/threonine-protein kinase PRP4 homolog (Homo sapiens) (UniProt Q13523); conditions: Compound concentration 1000.0 nM
[5] = target: GABA-A receptor; anion channel (Rattus norvegicus) (UniProt O09028+P15431+P18506+P18508+P19969+P20236+P23574+P23576+P28471+P28473+P30191+P62813+P63079+P63138+Q91ZM7+Q9ES14); conditions: Compound concentration 10.0 uM
[6] = target: Epidermal growth factor receptor (Homo sapiens) (UniProt P00533); conditions: Compound concentration 1000.0 nM
[7] = target: Ribosomal protein S6 kinase alpha-3 (Homo sapiens) (UniProt P51812); conditions: Compound concentration 1000.0 nM
[8] = system: Proto-oncogene tyrosine-protein kinase receptor Ret (Homo sapiens), P07949 [M918T]; conditions: Compound concentration 1000.0 nM
[9] = target: 5-hydroxytryptamine receptor 2B (Homo sapiens) (UniProt P41595); conditions: Compound concentration 10.0 uM
[10] = target: RAC-alpha serine/threonine-protein kinase (Homo sapiens) (UniProt P31749); conditions: Compound concentration 1000.0 nM
[11] = target: Dual specificity mitogen-activated protein kinase kinase 4 (Homo sapiens) (UniProt P45985); conditions: Compound concentration 1000.0 nM
[12] = target: Serine/threonine-protein kinase NIM1 (Homo sapiens) (UniProt Q8IY84); conditions: Compound concentration 1000.0 nM
[13] = target: Phosphatidylinositol 4-phosphate 3-kinase C2 domain-containing subunit beta (Homo sapiens) (UniProt O00750); conditions: Compound concentration 1000.0 nM
Chain of Phosphatidylinositol 4-phosphate 3-kinase C2 domain-containing subunit beta (Homo sapiens) (O00750 whole entry, the tested form may be a part): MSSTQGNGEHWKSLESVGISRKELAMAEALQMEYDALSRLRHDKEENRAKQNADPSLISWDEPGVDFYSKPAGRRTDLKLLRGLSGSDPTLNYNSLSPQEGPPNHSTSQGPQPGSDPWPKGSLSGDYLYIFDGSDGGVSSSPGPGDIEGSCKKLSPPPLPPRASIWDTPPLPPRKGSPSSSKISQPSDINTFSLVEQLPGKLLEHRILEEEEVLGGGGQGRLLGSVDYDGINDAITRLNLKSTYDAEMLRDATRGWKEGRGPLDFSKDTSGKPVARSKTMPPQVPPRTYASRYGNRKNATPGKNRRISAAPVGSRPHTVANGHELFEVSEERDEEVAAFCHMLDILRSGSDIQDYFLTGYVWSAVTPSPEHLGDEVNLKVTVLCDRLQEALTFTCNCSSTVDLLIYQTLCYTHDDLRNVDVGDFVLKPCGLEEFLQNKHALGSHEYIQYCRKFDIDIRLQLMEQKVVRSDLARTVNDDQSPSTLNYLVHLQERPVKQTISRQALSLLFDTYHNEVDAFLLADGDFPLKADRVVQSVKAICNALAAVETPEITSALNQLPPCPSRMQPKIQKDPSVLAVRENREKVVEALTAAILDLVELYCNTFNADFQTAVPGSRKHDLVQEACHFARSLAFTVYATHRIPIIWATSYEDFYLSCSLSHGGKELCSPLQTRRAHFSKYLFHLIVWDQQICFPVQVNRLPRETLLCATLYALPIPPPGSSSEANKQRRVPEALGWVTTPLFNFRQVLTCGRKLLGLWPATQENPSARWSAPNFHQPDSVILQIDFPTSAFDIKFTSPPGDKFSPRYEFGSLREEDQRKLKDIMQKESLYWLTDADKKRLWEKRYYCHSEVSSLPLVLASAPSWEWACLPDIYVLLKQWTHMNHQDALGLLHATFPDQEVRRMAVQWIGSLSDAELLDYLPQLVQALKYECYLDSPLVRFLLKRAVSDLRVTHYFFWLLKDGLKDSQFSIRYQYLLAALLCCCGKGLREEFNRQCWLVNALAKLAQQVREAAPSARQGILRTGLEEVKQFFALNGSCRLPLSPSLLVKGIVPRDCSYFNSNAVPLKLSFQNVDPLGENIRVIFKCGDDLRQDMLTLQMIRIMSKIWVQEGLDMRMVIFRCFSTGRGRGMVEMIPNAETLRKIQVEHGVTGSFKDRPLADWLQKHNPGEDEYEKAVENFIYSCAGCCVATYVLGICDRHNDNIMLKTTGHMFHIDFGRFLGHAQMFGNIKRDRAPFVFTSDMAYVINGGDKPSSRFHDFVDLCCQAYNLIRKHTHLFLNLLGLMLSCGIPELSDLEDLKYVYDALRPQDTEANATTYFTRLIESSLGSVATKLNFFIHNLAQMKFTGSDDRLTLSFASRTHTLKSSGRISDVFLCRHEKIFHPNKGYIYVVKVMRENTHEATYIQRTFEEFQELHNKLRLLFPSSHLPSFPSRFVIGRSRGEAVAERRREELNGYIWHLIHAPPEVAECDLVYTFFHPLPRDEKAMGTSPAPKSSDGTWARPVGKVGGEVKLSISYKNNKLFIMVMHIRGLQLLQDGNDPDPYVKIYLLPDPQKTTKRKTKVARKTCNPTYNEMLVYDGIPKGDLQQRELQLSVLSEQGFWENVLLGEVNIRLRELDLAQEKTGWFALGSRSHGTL

[14] = target: Cyclin-dependent kinase 4 (Homo sapiens) (UniProt P11802); conditions: Compound concentration 1000.0 nM
[15] = target: Glycogen synthase kinase-3 alpha (Homo sapiens) (UniProt P49840); conditions: Compound concentration 1000.0 nM
[16] = system: ALK tyrosine kinase receptor (Homo sapiens), Q9UM73 [L1196M]; conditions: Compound concentration 1000.0 nM
[17] = target: Cyclin-dependent kinase 7 (Homo sapiens) (UniProt P50613); conditions: Compound concentration 1000.0 nM
[18] = target: Muscarinic acetylcholine receptor M2 (Homo sapiens) (UniProt P08172); conditions: Compound concentration 10.0 uM
[19] = system: Mast/stem cell growth factor receptor Kit (Homo sapiens), P10721 [A829P]; conditions: Compound concentration 1000.0 nM
[20] = target: Calcium-dependent protein kinase 1 (Plasmodium falciparum) (UniProt P62344); conditions: Compound concentration 1000.0 nM
[21] = target: RAF proto-oncogene serine/threonine-protein kinase (Homo sapiens) (UniProt P04049); conditions: Compound concentration 1000.0 nM
[22] = target: G protein-coupled receptor kinase 3 (Homo sapiens) (UniProt P35626); conditions: Compound concentration 1000.0 nM
[23] = target: Serine/threonine-protein kinase 17B (Homo sapiens) (UniProt O94768); conditions: Compound concentration 1000.0 nM
[24] = target: Non-receptor tyrosine-protein kinase TNK1 (Homo sapiens) (UniProt Q13470); conditions: Compound concentration 1000.0 nM
[25] = target: 5-hydroxytryptamine receptor 1B (Homo sapiens) (UniProt P28222); conditions: Compound concentration 10.0 uM
[26] = target: Mitogen-activated protein kinase kinase kinase kinase 1 (Homo sapiens) (UniProt Q92918); conditions: Compound concentration 1000.0 nM
[27] = target: Aurora kinase C (Homo sapiens) (UniProt Q9UQB9); conditions: Compound concentration 1000.0 nM
[28] = target: Serine/threonine-protein kinase RIO1 (Homo sapiens) (UniProt Q9BRS2); conditions: Compound concentration 1000.0 nM
[29] = system: Receptor-type tyrosine-protein kinase FLT3 (Homo sapiens), P36888 [K663Q]; conditions: Compound concentration 1000.0 nM
[30] = target: Serine/threonine-protein kinase OSR1 (Homo sapiens) (UniProt O95747); conditions: Compound concentration 1000.0 nM
[31] = system: Phosphatidylinositol 4,5-bisphosphate 3-kinase catalytic subunit alpha isoform (Homo sapiens), P42336 [C420R]; conditions: Compound concentration 1000.0 nM
[32] = target: Cyclin-dependent kinase 15 (Homo sapiens) (UniProt Q96Q40); conditions: Compound concentration 1000.0 nM
[33] = target: Fibroblast growth factor receptor 2 (Homo sapiens) (UniProt P21802); conditions: Compound concentration 1000.0 nM
[34] = target: Serine/threonine-protein kinase MRCK beta (Homo sapiens) (UniProt Q9Y5S2); conditions: Compound concentration 1000.0 nM
Chain of Serine/threonine-protein kinase MRCK beta (Homo sapiens) (Q9Y5S2 whole entry): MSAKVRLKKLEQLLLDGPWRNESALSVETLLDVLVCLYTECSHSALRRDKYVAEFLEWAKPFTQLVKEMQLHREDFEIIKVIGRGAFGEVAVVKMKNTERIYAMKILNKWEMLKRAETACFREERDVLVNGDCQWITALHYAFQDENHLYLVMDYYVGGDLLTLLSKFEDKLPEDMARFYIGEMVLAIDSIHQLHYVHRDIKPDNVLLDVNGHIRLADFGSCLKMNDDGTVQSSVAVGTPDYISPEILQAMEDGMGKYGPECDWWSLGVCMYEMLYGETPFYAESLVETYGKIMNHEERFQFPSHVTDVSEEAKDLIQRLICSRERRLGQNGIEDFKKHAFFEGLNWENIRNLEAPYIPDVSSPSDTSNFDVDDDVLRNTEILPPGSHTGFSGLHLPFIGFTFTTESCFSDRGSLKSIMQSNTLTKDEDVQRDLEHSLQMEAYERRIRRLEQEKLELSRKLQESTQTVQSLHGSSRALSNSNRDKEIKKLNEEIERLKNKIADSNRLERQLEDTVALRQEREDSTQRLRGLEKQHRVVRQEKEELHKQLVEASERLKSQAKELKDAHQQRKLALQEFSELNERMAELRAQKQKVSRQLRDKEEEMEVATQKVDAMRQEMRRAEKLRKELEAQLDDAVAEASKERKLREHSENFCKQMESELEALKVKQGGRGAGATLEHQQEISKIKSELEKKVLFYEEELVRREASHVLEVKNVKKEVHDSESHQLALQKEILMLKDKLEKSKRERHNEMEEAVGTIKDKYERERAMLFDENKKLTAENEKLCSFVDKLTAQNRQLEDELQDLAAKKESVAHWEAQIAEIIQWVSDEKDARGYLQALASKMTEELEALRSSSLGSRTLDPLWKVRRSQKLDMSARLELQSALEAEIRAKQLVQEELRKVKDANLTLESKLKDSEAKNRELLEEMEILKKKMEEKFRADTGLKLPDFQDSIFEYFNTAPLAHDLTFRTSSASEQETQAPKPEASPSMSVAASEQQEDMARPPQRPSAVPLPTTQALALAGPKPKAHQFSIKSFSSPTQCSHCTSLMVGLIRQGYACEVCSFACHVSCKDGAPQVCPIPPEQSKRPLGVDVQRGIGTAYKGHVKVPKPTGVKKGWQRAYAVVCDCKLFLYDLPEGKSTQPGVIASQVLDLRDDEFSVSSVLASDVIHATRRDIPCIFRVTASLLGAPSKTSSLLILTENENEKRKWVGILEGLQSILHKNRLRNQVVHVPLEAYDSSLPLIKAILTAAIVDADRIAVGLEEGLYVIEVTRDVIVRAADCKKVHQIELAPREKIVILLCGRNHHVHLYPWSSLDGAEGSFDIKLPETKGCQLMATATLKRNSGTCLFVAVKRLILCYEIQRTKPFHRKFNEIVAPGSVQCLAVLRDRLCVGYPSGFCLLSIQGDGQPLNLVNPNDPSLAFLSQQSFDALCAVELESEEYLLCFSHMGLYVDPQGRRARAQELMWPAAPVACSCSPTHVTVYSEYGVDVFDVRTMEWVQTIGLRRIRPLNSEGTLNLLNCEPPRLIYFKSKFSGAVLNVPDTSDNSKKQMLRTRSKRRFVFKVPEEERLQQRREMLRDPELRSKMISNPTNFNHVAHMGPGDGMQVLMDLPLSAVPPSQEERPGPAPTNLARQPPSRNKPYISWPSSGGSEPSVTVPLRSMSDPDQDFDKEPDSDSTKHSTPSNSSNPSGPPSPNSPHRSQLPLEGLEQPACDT

[35] = target: Serine/threonine-protein kinase STK11 (Homo sapiens) (UniProt Q15831); conditions: Compound concentration 1000.0 nM
[36] = system: Epidermal growth factor receptor (Homo sapiens), P00533 [UNDEFINED MUTATION]; conditions: Compound concentration 1000.0 nM
[37] = target: Phosphatidylinositol 3-kinase C2 domain-containing subunit gamma (Homo sapiens) (UniProt O75747); conditions: Compound concentration 1000.0 nM
[38] = target: Delta-type opioid receptor (Homo sapiens) (UniProt P41143); conditions: Compound concentration 10.0 uM
Chain of Delta-type opioid receptor (Homo sapiens) (P41143 whole entry): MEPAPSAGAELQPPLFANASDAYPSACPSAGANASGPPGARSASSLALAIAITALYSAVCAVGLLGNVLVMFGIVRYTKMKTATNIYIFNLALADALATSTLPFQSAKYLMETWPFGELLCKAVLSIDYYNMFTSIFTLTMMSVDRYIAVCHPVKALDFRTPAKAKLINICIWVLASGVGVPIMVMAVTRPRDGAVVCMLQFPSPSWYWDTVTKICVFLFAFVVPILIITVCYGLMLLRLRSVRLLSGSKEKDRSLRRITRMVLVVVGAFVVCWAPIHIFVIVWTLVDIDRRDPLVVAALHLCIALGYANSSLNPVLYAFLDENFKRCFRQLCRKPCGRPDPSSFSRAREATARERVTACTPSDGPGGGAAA

[39] = target: Serine/threonine-protein kinase Nek1 (Homo sapiens) (UniProt Q96PY6); conditions: Compound concentration 1000.0 nM
Chain of Serine/threonine-protein kinase Nek1 (Homo sapiens) (Q96PY6 whole entry): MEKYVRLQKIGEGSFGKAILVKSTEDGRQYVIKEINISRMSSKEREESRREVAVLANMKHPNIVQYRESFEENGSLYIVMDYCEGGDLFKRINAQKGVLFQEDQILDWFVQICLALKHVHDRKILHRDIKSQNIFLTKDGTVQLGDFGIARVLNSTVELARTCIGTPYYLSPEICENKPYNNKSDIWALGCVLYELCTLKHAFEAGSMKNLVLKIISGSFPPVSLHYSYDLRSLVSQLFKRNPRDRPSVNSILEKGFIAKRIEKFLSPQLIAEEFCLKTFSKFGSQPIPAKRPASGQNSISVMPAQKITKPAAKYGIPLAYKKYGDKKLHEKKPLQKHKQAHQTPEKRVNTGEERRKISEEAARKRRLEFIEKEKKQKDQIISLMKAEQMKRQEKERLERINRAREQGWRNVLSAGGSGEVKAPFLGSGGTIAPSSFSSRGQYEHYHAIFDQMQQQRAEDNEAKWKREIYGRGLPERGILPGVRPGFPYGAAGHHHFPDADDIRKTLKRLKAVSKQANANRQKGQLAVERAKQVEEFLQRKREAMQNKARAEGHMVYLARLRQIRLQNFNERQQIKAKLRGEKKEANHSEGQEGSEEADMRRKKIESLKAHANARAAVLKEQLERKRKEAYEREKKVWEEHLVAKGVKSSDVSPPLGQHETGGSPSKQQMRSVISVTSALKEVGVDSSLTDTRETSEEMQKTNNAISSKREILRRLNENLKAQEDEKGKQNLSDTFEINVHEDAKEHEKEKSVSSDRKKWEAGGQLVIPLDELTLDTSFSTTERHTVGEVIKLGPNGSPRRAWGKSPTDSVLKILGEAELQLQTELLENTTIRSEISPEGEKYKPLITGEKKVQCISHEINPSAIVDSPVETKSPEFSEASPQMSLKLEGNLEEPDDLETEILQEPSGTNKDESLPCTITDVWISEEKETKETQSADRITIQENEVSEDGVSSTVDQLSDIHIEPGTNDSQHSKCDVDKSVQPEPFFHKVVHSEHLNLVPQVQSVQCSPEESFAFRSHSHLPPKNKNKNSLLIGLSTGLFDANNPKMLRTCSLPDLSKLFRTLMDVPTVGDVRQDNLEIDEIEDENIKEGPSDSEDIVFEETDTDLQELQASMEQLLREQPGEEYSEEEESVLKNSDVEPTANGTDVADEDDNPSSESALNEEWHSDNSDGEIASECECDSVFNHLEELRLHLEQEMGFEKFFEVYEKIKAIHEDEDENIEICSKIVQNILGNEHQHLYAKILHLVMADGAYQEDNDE

[40] = system: Mast/stem cell growth factor receptor Kit (Homo sapiens), P10721 [L576P]; conditions: Compound concentration 1000.0 nM
[41] = target: Vascular endothelial growth factor receptor 1 (Homo sapiens) (UniProt P17948); conditions: Compound concentration 1000.0 nM
[42] = target: Serine/threonine-protein kinase N2 (Homo sapiens) (UniProt Q16513); conditions: Compound concentration 1000.0 nM
[43] = target: Aurora kinase A (Homo sapiens) (UniProt O14965); conditions: Compound concentration 1000.0 nM

O=C1CCc2cc(Nc3cc(OC4CCOCC4)c([N+](=O)[O-])cc3Cl)ccc2N1
active: residual activity [39] 40%
inactive: residual activity [1] 88% | residual activity [2] 100% | residual activity [3] 100% | residual activity [4] 100% | inhibition [5] 12.7% | residual activity [6] 100% | residual activity [7] 100% | residual activity [8] 94% | inhibition [9] 3.31% | residual activity [10] 98% | residual activity [11] 100% | residual activity [12] 100% | residual activity [13] 89% | residual activity [14] 90% | residual activity [15] 100% | residual activity [16] 100% | residual activity [17] 86% | inhibition [18] 5.41% | residual activity [19] 100% | residual activity [20] 100% | residual activity [21] 98% | residual activity [22] 100% | residual activity [23] 100% | residual activity [24] 87% | inhibition [25] 14.3% | residual activity [26] 100% | residual activity [27] 100% | residual activity [28] 100% | residual activity [29] 100% | residual activity [30] 83% | residual activity [31] 97% | residual activity [32] 73% | residual activity [33] 100% | residual activity [34] 90% | residual activity [35] 100% | residual activity [36] 100% | residual activity [37] 94% | inhibition [38] 3.32% | residual activity [40] 100% | residual activity [41] 100% | residual activity [42] 100% | residual activity [43] 87%

N#Cc1ccc(Nc2ccc3[nH]c(=O)[nH]c3c2)c(Cl)c1
inactive: residual activity [1] 92% | residual activity [2] 100% | residual activity [3] 100% | residual activity [4] 99% | inhibition [5] 15.5% | residual activity [6] 100% | residual activity [7] 100% | residual activity [8] 100% | inhibition [9] 11% | residual activity [10] 67% | residual activity [11] 100% | residual activity [12] 100% | residual activity [13] 99% | residual activity [14] 91% | residual activity [15] 100% | residual activity [16] 100% | residual activity [17] 99% | inhibition [18] 3.51% | residual activity [19] 100% | residual activity [20] 99% | residual activity [21] 68% | residual activity [22] 100% | residual activity [23] 100% | residual activity [24] 56% | inhibition [25] 6.7% | residual activity [26] 100% | residual activity [27] 100% | residual activity [28] 100% | residual activity [29] 92% | residual activity [30] 75% | residual activity [31] 90% | residual activity [32] 94% | residual activity [33] 100% | residual activity [34] 100% | residual activity [35] 100% | residual activity [36] 100% | residual activity [37] 95% | inhibition [38] -0.28% | residual activity [39] 55% | residual activity [40] 89% | residual activity [41] 100% | residual activity [42] 76% | residual activity [43] 87%
